Test results published in US9096593B2, “Compounds and methods for kinase modulation, and indications therefor” (Plexxikon Inc., priority 2009, dated 2015).

Experiments:
[1] = Turbidity assay of relative solubility in aqueous buffers; assay type: physicochemical; conditions: for turbidity threshold (L, M, H) 1.4: pH 1.4 as headed (method: SGF pH 1.5); for turbidity threshold (L, M, H) 4.5: pH 4.5 (SIF); for turbidity threshold (L, M, H) 6.8: pH 6.8 (SIF); for turbidity threshold (L, M, H) 7.4: pH 7.4 (HEPES)
Procedure, shortened: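 Turbidity was read spectrophotometrically at 490, 535 and 650 nm, and the endpoint is the concentration where OD passes 0.01, as the mean of the three wavelengths. Compounds came from 25 mM DMSO stock in 1:1 serial dilutions, added to HEPES pH 7.4, SIF pH 6.8 or 4.5 (0.05M NaH2PO4), or SGF pH 1.5 (0.5M NaCl).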

[2] = target: BCR-KIT/BaF3 cells (Homo sapiens, UniProt P10721); test: BCR-KIT/BaF3 cell proliferation assay (ATPlite); assay type: cell-based; conditions: read-out: BCR/BaF3 (IC50 μM) Kit
Procedure, shortened: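 BCR-KIT/BaF3 cells plated at 10,000/well in G418-containing medium without IL-3/WEHI; MV-4-11 at 25,000/well in medium with 10% FBS. Compound given as 8-point 1:3 titration, top 10 μM final, 3 days at 37 °C. Viability read as ATPlite luminescence; IC50 from concentration curve.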

Sequence of BCR-KIT/BaF3 cells (P10721 26-976 limits assumed, change not shown): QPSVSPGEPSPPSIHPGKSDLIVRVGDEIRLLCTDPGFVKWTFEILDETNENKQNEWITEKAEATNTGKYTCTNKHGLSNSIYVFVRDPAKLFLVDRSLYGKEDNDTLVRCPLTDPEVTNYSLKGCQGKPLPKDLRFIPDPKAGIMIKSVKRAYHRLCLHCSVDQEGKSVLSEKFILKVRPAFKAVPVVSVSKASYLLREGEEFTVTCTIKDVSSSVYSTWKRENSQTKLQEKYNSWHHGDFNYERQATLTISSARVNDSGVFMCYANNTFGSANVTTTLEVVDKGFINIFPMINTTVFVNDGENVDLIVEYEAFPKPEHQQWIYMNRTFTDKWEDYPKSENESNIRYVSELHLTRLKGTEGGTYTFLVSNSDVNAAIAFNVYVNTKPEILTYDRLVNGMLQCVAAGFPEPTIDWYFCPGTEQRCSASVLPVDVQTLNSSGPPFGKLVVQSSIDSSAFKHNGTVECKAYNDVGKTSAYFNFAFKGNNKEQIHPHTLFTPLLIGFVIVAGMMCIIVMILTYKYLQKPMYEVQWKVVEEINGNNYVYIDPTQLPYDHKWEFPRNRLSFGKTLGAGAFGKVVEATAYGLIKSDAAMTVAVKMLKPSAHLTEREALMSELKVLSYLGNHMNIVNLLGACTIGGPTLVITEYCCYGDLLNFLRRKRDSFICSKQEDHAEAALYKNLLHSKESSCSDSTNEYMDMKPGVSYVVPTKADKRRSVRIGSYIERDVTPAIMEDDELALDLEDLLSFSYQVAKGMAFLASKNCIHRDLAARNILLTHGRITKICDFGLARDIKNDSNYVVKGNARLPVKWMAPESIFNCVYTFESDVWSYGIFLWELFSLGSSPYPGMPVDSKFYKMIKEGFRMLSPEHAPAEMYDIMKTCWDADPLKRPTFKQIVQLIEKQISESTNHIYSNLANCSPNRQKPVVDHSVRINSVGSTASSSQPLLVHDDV

| SMILES | turbidity threshold (L, M, H) 1.4 [1] | turbidity threshold (L, M, H) 4.5 [1] | turbidity threshold (L, M, H) 6.8 [1] | turbidity threshold (L, M, H) 7.4 [1] | IC50 [2] |
| --- | --- | --- | --- | --- | --- |
| COc1ncc(F)cc1CNc1ncc(Cc2c[nH]c3ncc(Cl)cc23)cn1 [Compound P-2064, [5-(5-Chloro-1H-pyrrolo[2,3-b]pyridin-3-ylmethyl)-pyrimidin-2-yl]-(5-fluoro-2-methoxy-pyridin-3-ylmethyl)-amine] | H (high solubility if the threshold concentration is >250 μM) | M (moderate solubility if the threshold concentration is 31.3 μM to 250 μM) | L (low solubility if the threshold concentration is <31.3 μM) | L (low solubility if the threshold concentration is <31.3 μM) | > 0.1 µM |
| Cc1cnc2[nH]cc(Cc3ccc(NCc4cnccc4C(F)(F)F)nc3F)c2c1 [Compound P-2062, [6-Fluoro-5-(5-methyl-1H-pyrrolo[2,3-b]pyridin-3-ylmethyl)-pyridin-2-yl]-(4-trifluoromethyl-pyridin-3-ylmethyl)-amine] | H (high solubility if the threshold concentration is >250 μM) | L (low solubility if the threshold concentration is <31.3 μM) | L (low solubility if the threshold concentration is <31.3 μM) | L (low solubility if the threshold concentration is <31.3 μM) | > 0.1 µM |
| COc1ncccc1CNc1ccc(Cc2c[nH]c3ncc(C)cc23)c(F)n1 [Compound P-2052, [6-Fluoro-5-(5-methyl-1H-pyrrolo[2,3-b]pyridin-3-ylmethyl)-pyridin-2-yl]-(2-methoxy-pyridin-3-ylmethyl)-amine] | H (high solubility if the threshold concentration is >250 μM) | L (low solubility if the threshold concentration is <31.3 μM) | L (low solubility if the threshold concentration is <31.3 μM) | L (low solubility if the threshold concentration is <31.3 μM) | > 0.1 µM |
| CCS(=O)(=O)Nc1ccccc1CNc1ccc(Cc2c[nH]c3ncc(C)cc23)c(F)n1 [Compound P-2198, Ethanesulfonic acid (2-{[6-fluoro-5-(5-methyl-1H-pyrrolo[2,3-b]pyridin-3-ylmethyl)-pyridin-2-ylamino]-methyl}-phenyl)-amide] | M (moderate solubility if the threshold concentration is 31.3 μM to 250 μM) | L (low solubility if the threshold concentration is <31.3 μM) | L (low solubility if the threshold concentration is <31.3 μM) | L (low solubility if the threshold concentration is <31.3 μM) | > 0.1 µM |
| COc1ccnc2[nH]cc(Cc3ccc(NCc4ccc(Cl)cc4)nc3F)c12 [Compound P-2037, (4-Chloro-benzyl)-[6-fluoro-5-(4-methoxy-1H-pyrrolo[2,3-b]pyridin-3-ylmethyl)-pyridin-2-yl]-amine] | M (moderate solubility if the threshold concentration is 31.3 μM to 250 μM) | L (low solubility if the threshold concentration is <31.3 μM) | L (low solubility if the threshold concentration is <31.3 μM) | L (low solubility if the threshold concentration is <31.3 μM) | > 0.1 µM |
